≈ marks a conversion by molar mass, not a printed value. Each block holds one compound with its values, some of them ahead of it.
Columns and labels:
Format in all cases: cell-based
Bacillus subtilis [1] = assay: Bacterial lipid peroxidation; conditions: treated at the MIC level
Pseudomonas aeruginosa [2] = assay: Biofilm inhibition, crystal violet method
Klebsiella pneumonia [3] = assay: Bacterial lipid peroxidation; conditions: treated at the MIC level
Staphylococcus aureus [4] = assay: Biofilm inhibition, crystal violet method
Pseudomonas aeruginosa [5] = assay: Bacterial lipid peroxidation; conditions: treated at the MIC level
Staphylococcus aureus [6] = assay: Bacterial lipid peroxidation; conditions: treated at the MIC level
Bacillus subtilis [7] = assay: MIC, broth microdilution
Klebsiella pneumonia [8] = assay: Biofilm inhibition, crystal violet method
Bacillus subtilis [9] = assay: Biofilm inhibition, crystal violet method
Pseudomonas aeruginosa [10] = assay: MIC, broth microdilution
Salmonella typhimurium [11] = assay: Bacterial lipid peroxidation; conditions: treated at the MIC level
Candida albicans = assay: MIC, broth microdilution
Staphylococcus aureus [12] = assay: MIC, broth microdilution
Salmonella typhimurium [13] = assay: Biofilm inhibition, crystal violet method
Klebsiella pneumonia [14] = assay: MIC, broth microdilution; conditions: Klebsiella pneumoniae

SMILES: CCCS(=O)(=O)Oc1ccc(C=NNC(=O)CSc2nc3c(C)cccc3c(=O)n2-c2ccccc2)cc1OC [5f, 2-Methoxy-4-((2-(2-((8-methyl-4-oxo-3-phenyl-3,4-dihydroquinazolin-2-yl)thio)-acetyl)hydrazono)methyl)phenyl propane-1-sulfonate]
- Lipid peroxidation efficiency (Bacillus subtilis [1]): 212.5 ± 5.52%
- Biofilm inhibition (Pseudomonas aeruginosa [2]): 34.8 ± 4.07%
- Lipid peroxidation efficiency (Klebsiella pneumonia [3]): 230.4 ± 2.12%
- Biofilm inhibition (Staphylococcus aureus [4]): 45.1 ± 1.62%
- Lipid peroxidation efficiency (Pseudomonas aeruginosa [5]): 140.4 ± 5.02%
- Lipid peroxidation efficiency (Staphylococcus aureus [6]): 151.2 ± 1.92%
- MIC (Bacillus subtilis [7]): 23 ± 2.21 µg/mL (≈ 39.6 µM)
- Biofilm inhibition (Klebsiella pneumonia [8]): 59.6 ± 2.22%
- Biofilm inhibition (Bacillus subtilis [9]): 56.4 ± 3.12%
- MIC (Pseudomonas aeruginosa [10]): 45 ± 6.11 µg/mL (≈ 77.5 µM)
- Lipid peroxidation efficiency (Salmonella typhimurium [11]): 273.1 ± 4.33%
- MIC (Candida albicans): 48 ± 4.18 µg/mL (≈ 82.7 µM)
- MIC (Staphylococcus aureus [12]): 50 ± 0.88 µg/mL (≈ 86.1 µM)
- Biofilm inhibition (Salmonella typhimurium [13]): 37.4 ± 1.82%
- MIC (Klebsiella pneumonia [14]): 22 ± 4.72 µg/mL (≈ 37.9 µM)

SMILES: O=C(O)c1cn(C2CC2)c2cc(N3CCNCC3)c(F)cc2c1=O [Ciprofloxacin, reference compound]
- Lipid peroxidation efficiency (Bacillus subtilis [1]): 417.7 ± 2.83%
- Biofilm inhibition (Pseudomonas aeruginosa [2]): 45.2 ± 1.18%
- Lipid peroxidation efficiency (Klebsiella pneumonia [3]): 327.4 ± 4.42%
- Biofilm inhibition (Staphylococcus aureus [4]): 30.9 ± 4.52%
- Lipid peroxidation efficiency (Pseudomonas aeruginosa [5]): 346.3 ± 2.62%
- Lipid peroxidation efficiency (Staphylococcus aureus [6]): 319.8 ± 3.26%
- Biofilm inhibition (Klebsiella pneumonia [8]): 40.8 ± 3.88%
- Biofilm inhibition (Bacillus subtilis [9]): 49.2 ± 1.16%
- Lipid peroxidation efficiency (Salmonella typhimurium [11]): 294.8 ± 1.99%
- Biofilm inhibition (Salmonella typhimurium [13]): 58.3 ± 4.02%

The next lines start with results.

- MIC (Bacillus subtilis [7]): 48 ± 2.25 µg/mL
- MIC (Pseudomonas aeruginosa [10]): 96 ± 4.83 µg/mL
- MIC (Candida albicans): 9 ± 3.17 µg/mL
- Efficacy (MIC) relative to Sulfadiazine (Staphylococcus aureus [12]): 2 fold
- MIC (Staphylococcus aureus [12]): 11.3 ± 2.38 µg/mL
- MIC (Klebsiella pneumonia [14]): 99 ± 5.02 µg/mL
SMILES: COc1ccc(C=NNC(=O)CSc2nc3c(C)cccc3c(=O)n2-c2ccccc2)cc1OS(C)(=O)=O [5g, 2-Methoxy-5-((2-(2-((8-methyl-4-oxo-3-phenyl-3,4-dihydroquinazolin-2-yl)thio)-acetyl)hydrazono)methyl)phenyl methanesulfonate]
- Lipid peroxidation efficiency (Bacillus subtilis [1]): 219.7 ± 2.71%
- Biofilm inhibition (Pseudomonas aeruginosa [2]): 20.1 ± 2.32%
- Lipid peroxidation efficiency (Klebsiella pneumonia [3]): 285.2 ± 1.44%
- Biofilm inhibition (Staphylococcus aureus [4]): 34.7 ± 4.02%
- Lipid peroxidation efficiency (Pseudomonas aeruginosa [5]): 175.2 ± 3.29%
- Lipid peroxidation efficiency (Staphylococcus aureus [6]): 118.4 ± 2.26%
- Biofilm inhibition (Klebsiella pneumonia [8]): 32.8 ± 1.92%
- Biofilm inhibition (Bacillus subtilis [9]): 45.1 ± 2.72%
- Lipid peroxidation efficiency (Salmonella typhimurium [11]): 210.4 ± 4.66%
- Biofilm inhibition (Salmonella typhimurium [13]): 33.9 ± 2.94%

- MIC (Bacillus subtilis [7]): 49 ± 2.77 µg/mL
- MIC (Pseudomonas aeruginosa [10]): 97 ± 3.88 µg/mL
- MIC (Candida albicans): 10 ± 2.55 µg/mL
- MIC (Staphylococcus aureus [12]): 52 ± 0.28 µg/mL
- MIC (Klebsiella pneumonia [14]): 44 ± 1.88 µg/mL
SMILES: CCS(=O)(=O)Oc1ccc(C=NNC(=O)CSc2nc3ccc(Cl)cc3c(=O)n2-c2ccccc2)cc1 [5k, 4-((2-(2-((6-Chloro-4-oxo-3-phenyl-3,4-dihydroquinazolin-2-yl)thio)acetyl)-hydrazono)methyl)phenyl ethanesulfonate]
- Lipid peroxidation efficiency (Bacillus subtilis [1]): 377.6 ± 3.44%
- Biofilm inhibition (Pseudomonas aeruginosa [2]): 38.7 ± 3.66%
- Lipid peroxidation efficiency (Klebsiella pneumonia [3]): 295.2 ± 1.89%
- Biofilm inhibition (Staphylococcus aureus [4]): 42.9 ± 2.62%
- Lipid peroxidation efficiency (Pseudomonas aeruginosa [5]): 181.3 ± 6.06%
- Lipid peroxidation efficiency (Staphylococcus aureus [6]): 202.2 ± 2.17%
- Biofilm inhibition (Klebsiella pneumonia [8]): 53.1 ± 2.12%
- Biofilm inhibition (Bacillus subtilis [9]): 63.7 ± 0.92%
- Lipid peroxidation efficiency (Salmonella typhimurium [11]): 278.3 ± 5.07%
- Biofilm inhibition (Salmonella typhimurium [13]): 61.9 ± 1.72%

- MIC (Bacillus subtilis [7]): 46 ± 4.18 µg/mL (≈ 184 µM)
- MIC (Pseudomonas aeruginosa [10]): 70 ± 4.99 µg/mL (≈ 280 µM)
- MIC (Candida albicans): 72 ± 3.44 µg/mL (≈ 288 µM)
- MIC (Staphylococcus aureus [12]): 24 ± 3.92 µg/mL (≈ 95.9 µM)
- MIC (Klebsiella pneumonia [14]): 47 ± 3.18 µg/mL (≈ 188 µM)
SMILES: Nc1ccc(S(=O)(=O)Nc2ncccn2)cc1 [Sulfadiazine, reference compound]
